Experiment [1] concerns the target GmRLK18-1 LRR domain (RHG1). In words: Binding of CLE like peptides to purified LRR domain of the RLK at rhg1/Rfs2, titration by luminescence spectrometry. Further details: species or system Glycine max. The text has this: (§1) The full length rhg1/Rfs2 or Rhg4 cDNA from the SCN resistant cultivar, ‘Forrest’ (Bruker et al. 2005), was sub-cloned in pGEM-T vector. For the rhg1/Rfs2 LRR DNA was PCR amplified using internal primers. Primers were designed to copy and amplify a 1032 bp region encompassing the 10 LRRs of rhg1. The sense primer 141-485F: 5′-[…]-3′ contained an eight base linker followed by an NcoI restriction site (in bold) to allow in-frame cloning into the expression vector pET30A (+). A factor Xa site (underlined) was incorporated in the sense primer in order to cleave the fusion protein. The anti-sense primer 141-485R: 5′-[…]-3′ contained a six base linker followed by an XhoI restriction site (in bold). The stop codon (underlined) was added to the primer sequence to terminate the RHG1 translation. The amplicon obtained by PCR was isolated by agarose gel electrophoresis and purified using gel elution. The amplified fragment was subcloned into pGEMT vector by ligation of the 3′T vector overhang with the 3′A added by Taq polymerase during template amplification. The complementarity between the vector 3′T overhangs and the PCR product 3′A overhangs allowed for direct ligation of PCR products into the vector. pGEMT vector was transformed into DH5a cells, positive colonies were selected and grown overnight in 5 ml of 2-fold YT medium. The recombinant plasmid DNA was purified using the Qiagen mini-prep kit.
About […] of the LRR sub-clone plasmid DNA was digested with NcoI and XhoI. Purified insert was ligated overnight at 16° C. using T4 DNA ligase into a XhoI/NcoI predigested pET30a (+) vector. The ratio of insert DNA to plasmid DNA was 3:1. The construct contained the hexa-his inframe with the Factor Xa vector site and 5′ end of the insert. The recombinant plasmid was transformed into DH5a cells. Positive colonies were selected on 2-fold YT plates supplemented with 50 μg/ml kanamycin and screened by digestion of mini-prep plasmid DNA with NcoI and XhoI followed by agarose gel electrophoresis. The nature of the inserts were also verified by DNA sequence analysis using the ABI 377 DNA sequencer (Foster City, Calif.).
A Quikchange site directed mutagenesis kit (Stratagene) was used for RLSH generation. Both sense and anti-sense primers were designed to loop out the 114 bp nucleotide linker region between the hexa-his tag and the first codon of RLLH. The forward primer DMF1: 5′-[…]-3′ and reverse primer DMR1: 5′-[…]-3′ were complementary in sequence and annealed to opposite stands of DNA. Amplification of template was performed with Pfu-Turbo DNA polymerase. Following amplification, the parent DNA (methylated and hemi-methylated) was digested with DpnI endonuclease (target sequence: 5′-Gm6ATC-3′). The amplified vector DNA containing the desired deletion was transformed into XL1-Blue competent cells and the cells were grown overnight in 2XYT supplemented with 50 μg/ml tetracycline and 50 μg/ml kanamycin. Colonies were picked, grown overnight, DNA purified and inserts identified by digestion of plasmid DNA with NdeI and XhoI followed by 2% (w/v) agarose gel electrophoresis. DNA was subsequently sequenced to verify looping out of the RLLH linker region. DNA from positive clones was transformed into BL21 (DE3-RIL) competent cells.
BL21-CodonPlus™-RIL series of strains contain extra copies of the E. coli argU, ileY, and leuW tRNA genes. The modification allowed for high expression of proteins that were difficult to express in conventional E. coli hosts due to the codon usage bias of the gene of interest. RHG1 protein contained 18 codons rarely used in E. coli in the LRR alone (Table 3.1). The 5 ml of LB overnight culture containing Rhg1/Rfs2 LRR or Rhg4 LRR was transferred to 1 L of M9 minimal media supplemented with ammonium sulfate and kanamycin. The cells were grown at 37° C. to an O.D of 1.0. The protein was induced with 0.4 mM IPTG and incubated at 16° C. in an orbital shaker for 18-20 h. […]

Experiment [2] concerns GmRLK8-1 LRR domain (RHG4). The experiment is described as follows: Binding of CLE like peptides to purified LRR domain of the RLK at Rhg4, titration by luminescence spectrometry. Also on record: species or system Glycine max.
Text: as §1
BL21-CodonPlus™-RIL series of strains contain extra copies of the E. coli argU, ileY, and leuW tRNA genes. The modification allowed for high expression of proteins that were difficult to express in conventional E. coli hosts due to the codon usage bias of the gene of interest. RHG1 protein contained 18 codons rarely used in E. coli in the LRR alone (Table 3.1). The 5 ml of LB overnight culture containing Rhg1/Rfs2 LRR or Rhg4 LRR was transferred to 1 L of M9 minimal media supplemented with ammonium sulfate and kanamycin. The cells were grown at 37° C. to an O.D of 1.0. The protein was induced with 0.4 mM IPTG and incubated at 16° C. in an orbital shaker for 18-20 h.
Proteins were solubilized from IBs, purified and refolded by the method described by Afzal and Lightfoot 2007, Protein Expression and Purification 53: 346-355. They were produced as in Example 9 and used for Far Western identification of interacting root proteins (FIGS. 4 & 5) and for identification of preferred ligands among small peptides found in root phloem (Table 4).

A short description of experiment [3]: Exogenous peptide treatment of plants. Format: in vivo. The following applies: phenotypes: transient wilting, increased plant vigor, increased disease resistance.
The test system of experiment [4] is GmRLK18-1 LRR domain. In words: Far-Western analysis of soybean root proteins probed with the LRR domain of GmRLK18-1. Format: binding, Glycine max. The following applies: 2D gel of SCN inoculated root proteins of NIL 34-23; MS identification.
The target in experiment [5] is GmRLK8-1 LRR domain (from the RLK protein at Rhg4) (Glycine max). In words: fluorescence (luminescence spectrometry) titration of peptide with purified LRR domain, in vitro.
Experiment [6] deals with T1, purified GmRLK18-1 LRR domain (6x his-RHG1) (Glycine max).
T1 chain: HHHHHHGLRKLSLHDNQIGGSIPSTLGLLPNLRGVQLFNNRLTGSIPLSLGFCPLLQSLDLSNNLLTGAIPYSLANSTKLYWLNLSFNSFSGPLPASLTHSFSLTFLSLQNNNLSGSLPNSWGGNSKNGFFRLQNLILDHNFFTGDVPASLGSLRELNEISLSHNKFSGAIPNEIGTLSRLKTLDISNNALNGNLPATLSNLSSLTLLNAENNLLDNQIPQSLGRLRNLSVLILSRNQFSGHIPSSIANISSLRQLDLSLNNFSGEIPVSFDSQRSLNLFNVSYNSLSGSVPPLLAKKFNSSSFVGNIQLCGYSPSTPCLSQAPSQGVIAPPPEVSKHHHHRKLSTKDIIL
The description is as above.

The target of experiment [7] is T1, purified GmRLK18-1 LRR domain (6x …). The experiment is described as follows: fluorescence (luminescence spectrometry) titration of peptide with purified LRR domain, in vitro; apparent Kd for dimerization.
Setting [8] is: purified LRR domain, binding constants calculated from titration experiments, read-out: Kd (nM) RHG4.
The mark [9] stands for this setting: purified LRR domain, binding constants calculated from titration experiments, read-out: Kd (nM) RHG1.

“Also recorded” adds a separate entry of the source. Where two headings read alike, the source gives them in different places. Where no end group is shown, it is not given here.

Take AHEVPSGPNPISNR [T, AHEVPSGPNPISNR]: the Kd in experiment [1] (assays in vitro, read-out: binding constants, GmRLK18-1-LRR) was 20 nM; in experiment [2] (setting [8]), 204 nM. Besides, the “binding by the GmRLK8-1 LRR domain protein, in words” value in experiment [2] (assays in vitro) is listed as “bound weakly”. Moreover, the “effect as exogenous treatment” value in experiment [3] is recorded as “effective”.
As for CTLSRLKTLDISNNALNGNLPATLSNLS [L], the Kd in experiment [1] (estimated from the peptide with one diverged LRR motif, read-out: apparent Kd for dimerization) is 36 nM; in experiment [2] (setting [8]) it was 135 nM.
On to DLPLAPADRLAPGGPDPQHNVRAPPRKP [2L], for which the Kd was 142 nM in experiment [1] (setting [9]) and 338 nM in experiment [2] (setting [8]).
Regarding KGLGLHEELRTVPSGPDPLHHHVNPPRQPR [3L], the Kd in experiment [1] (setting [9]) is 65 nM; in experiment [2] (setting [8]), 142 nM.
In the case of KRLSPSGPDPHHH [N, KRLSPSGPDPHHH], in experiment [1] (assays in vitro), the “binding by the GmRLK18-1 derived LRR peptide, in words” value was “strong binding constant”. The Kd is 30 nM in experiment [1] (setting [9]) and 78 nM in experiment [2] (assays in vitro, read-out: affinity, GmRLK8-1 LRR domain). For the same molecule, the “effect as exogenous treatment” value in experiment [3] was “effective”.
With RAELDFNYMSKRRVPNGPDPIHNRRAGNSGR [36L], the Kd in experiment [1] (setting [9]) was 49 nM; in experiment [2] (setting [8]), 51 nM.
As for “RLAPEGPDPHHN [compound 30, RLAPEGPDPHHN]”, in experiment [1] (assays in vitro), the “binding by the GmRLK18-1 derived LRR peptide, in words” value is listed as “bound weakly”. For the same molecule, the results for the Kd in experiment [1] (setting [9]) and in experiment [2] (setting [8]) were 44 nM and 84 nM, respectively. Further, in experiment [2] (assays in vitro), the “binding by the GmRLK8-1 LRR domain protein, in words” value is given as “bound very weakly”.
Turning to RLAPGGPDPQHN [compound 2, RLAPGGPDPQHN], the figures for the Kd in experiment [1] (setting [9]) and in experiment [2] (setting [8]) were 45 nM and 96 nM, respectively. Moreover, the “binding by the GmRLK8-1 LRR domain protein, in words” value in experiment [2] (assays in vitro) is given as “bound very weakly”.
Turning to RTVPSGPDPLHH [compound 3, RTVPSGPDPLHH], in experiment [1] (assays in vitro), the “binding by the GmRLK18-1 derived LRR peptide, in words” value was “strong binding constant”. Besides, the results for the Kd in experiment [1] (setting [9]) and in experiment [2] (setting [8]) were 29 nM and 50 nM, respectively.
As to “SKRRVPNGPDPIHNR [compound 36, SKRRVPNGPDPIHNR]”, the Kd in experiment [1] (setting [9]) was 14 nM; in experiment [2] (setting [8]), 52 nM.
Take “cyclophilin: soybean cyclophilin, GenBank gi 17981611, binds the purified LRR domain”: the “binding to the GmRLK18-1 LRR domain in Far-Western” value in experiment [4] is “bound strongly; also recorded: interacting partner”.
RAELDFNYMSKRRVPNGPDPIHNRRAGNSGR (modifications not checked) [peptide 36L (GmCLE34, AtCLE36, MtCLE36)]: the Kd in experiment [5] stood at 0.051 µM; in experiment [6] it was 0.049 µM.
Consider AHEVPSGPNPISNR (modifications not checked) [peptide T (GmTDIF, ZeTDIF)], for which the Kd in experiment [5] was 0.204 µM; in experiment [6], 0.02 µM.
The matching figures for RTVPSGPDPLHH (modifications not checked) [peptide 3 (GmCLE3, AtCLE3, AtClv3 unmodified)]: 0.05 µM and 0.029 µM.
The matching figures for KRLSPSGPDPHHH (modifications not checked) [peptide N (HgCLV3)]: 0.078 µM and 0.03 µM.
As for KGLGLHEELRTVPSGPDPLHHHVNPPRQPR (modifications not checked) [peptide 3L (GmCLE3, AtCLE3, AtClv3 unmodified)], the Kd is 0.142 µM in experiment [5] and 0.065 µM in experiment [6].
DLPLAPADRLAPGGPDPQHNVRAPPRKP (modifications not checked) [peptide 2L (GmNIC1, LjCLE-R2 and LjCLE-R1)]: the figures for the Kd in experiment [5] and in experiment [6] were 0.338 µM and 0.142 µM, respectively.
Take SKRRVPNGPDPIHNR (modifications not checked) [peptide 36 (GmCLE34, AtCLE36, MtCLE36)]: the values for the Kd in experiment [5] and in experiment [6] were 0.052 µM and 0.014 µM, respectively.
RLAPEGPDPHHN (modifications not checked) [peptide 30 (GmCLE30, GmRIC1)]: the Kd in experiment [5] is 0.084 µM; in experiment [6], 0.044 µM.
With CTLSRLKTLDISNNALNGNLPATLSNLS (modifications not checked) [peptide L (GmLRR, GmRLK18-1)], the Kd in experiment [5] came to 0.135 µM; in experiment [7] it was 0.036 µM.
RLAPGGPDPQHN (modifications not checked) [peptide 2 (GmNIC1, LjCLE-R2 and LjCLE-R1)]: the Kd in experiment [5] was 0.096 µM; in experiment [6], 0.045 µM.

(Values after patent US20120192315A1, “RESISTANCE GENES AND PROTEINS ACTIVE AGAINST FUSARIUM ROOT ROTS, CYST NEMATODES AND SOYBEAN SUDDEN DEATH SYNDROME AND METHODS EMPLOYING SAME” (Southern Illinois University Carbondale, priority 2011, published 2012).)
